For this test, the system named is MV-4-11 cells. Description: Gene expression microarray analysis (Affymetrix PrimeView) and GSEA. It counts as cell-based, human. The arrangement: RFU PODN (11730768_x_at) / Fold change /veh PODN (11730768_x_at) / RFU LINC00158 (11744669_a_at) / Fold change /veh LINC00158 (11744669_a_at) / RFU DUSP10 (11751237_a_at) / Fold change /veh DUSP10 (11751237_a_at) / RFU ID3 (11757404_x_at) / Fold change /veh ID3 (11757404_x_at) / RFU PLEKHG5 (11737974_s_at) / Fold change /veh PLEKHG5 (11737974_s_at) / RFU LRRC4B (11730491_at) / Fold change /veh LRRC4B (11730491_at) / RFU GIMAP4 (11747438_a_at) / Fold change /veh GIMAP4 (11747438_a_at) / RFU KRT8 (11758183_x_at) / Fold change /veh KRT8 (11758183_x_at) / RFU CNN1 (11734310_a_at) / Fold change /veh CNN1 (11734310_a_at) / RFU VPS37D (11726825_at) / Fold change /veh VPS37D (11726825_at) / RFU C10orf10 (11716522_x_at) / Fold change /veh C10orf10 (11716522_x_at) / RFU KIR2DL2 /// KIR2DL4 /// KIR2DL5A /// KIR2DL5B /// KIR2DS1 /// KIR2DS2 /// KIR2DS3 /// KIR2DS4 /// KIR3DL3 /// KIR3DL3 /// KIR3DS1 (11738374_at) / Fold change /veh KIR2DL2 /// KIR2DL4 /// KIR2DL5A /// KIR2DL5B /// KIR2DS1 /// KIR2DS2 /// KIR2DS3 /// KIR2DS4 /// KIR3DL3 /// KIR3DL3 /// KIR3DS1 (11738374_at) / RFU C1QL1 (11718748_at) / Fold change /veh C1QL1 (11718748_at) / RFU TMPRSS4 (11747572_a_at) / Fold change /veh TMPRSS4 (11747572_a_at) / RFU HAMP (11756126_x_at) / Fold change /veh HAMP (11756126_x_at) / RFU RNFT2 (11725882_a_at) / Fold change /veh RNFT2 (11725882_a_at) / RFU NR4A2 (11747474_a_at) / Fold change /veh NR4A2 (11747474_a_at) / RFU ABCC12 (11746883_a_at) / Fold change /veh ABCC12 (11746883_a_at) / RFU TMEM136 (11760407_x_at) / Fold change /veh TMEM136 (11760407_x_at) / RFU CLDN22 /// WWC2 (11732394_at) / Fold change /veh CLDN22 /// WWC2 (11732394_at) / RFU HLA-DPB1 (11760878_x_at) / Fold change /veh HLA-DPB1 (11760878_x_at) / RFU SPINT1 (11716480_a_at) / Fold change /veh SPINT1 (11716480_a_at) / RFU GAP43 (11754022_s_at) / Fold change /veh GAP43 (11754022_s_at) / RFU A4GNT (11735810_at) / Fold change /veh A4GNT (11735810_at) / RFU PRB3 (11715151_x_at) / Fold change /veh PRB3 (11715151_x_at) / RFU TUBB4B (11761932_at) / Fold change /veh TUBB4B (11761932_at) / RFU CAPN14 (11732068_a_at) / Fold change /veh CAPN14 (11732068_a_at) / RFU TMCC2 (11721928_a_at) / Fold change /veh TMCC2 (11721928_a_at) / RFU IRGQ (11745062_a_at) / Fold change /veh IRGQ (11745062_a_at) / RFU FAM174B (11720279_a_at) / Fold change /veh FAM174B (11720279_a_at) / RFU TMPRSS4 (11748680_a_at) / Fold change /veh TMPRSS4 (11748680_a_at) / RFU FAM212B (11763350_a_at) / Fold change /veh FAM212B (11763350_a_at) / RFU PLEKHG5 (11743358_a_at) / Fold change /veh PLEKHG5 (11743358_a_at) / RFU ZSCAN30 (11745921_a_at) / Fold change /veh ZSCAN30 (11745921_a_at) / RFU CMKLR1 (11741424_a_at) / Fold change /veh CMKLR1 (11741424_a_at) / RFU LOC101060620 /// MAPK8IP1 (11723275_at) / Fold change /veh LOC101060620 /// MAPK8IP1 (11723275_at) / RFU SPTSSB (11747773_x_at) / Fold change /veh SPTSSB (11747773_x_at) / RFU PRSS12 (11739890_at) / Fold change /veh PRSS12 (11739890_at) / RFU BIN1 (11741810_x_at) / Fold change /veh BIN1 (11741810_x_at) / RFU WNT11 (11732464_a_at) / Fold change /veh WNT11 (11732464_a_at) / RFU C10orf10 (11716521_a_at) / Fold change /veh C10orf10 (11716521_a_at) / RFU C5orf56 (11738089_at) / Fold change /veh C5orf56 (11738089_at) / RFU CYB561 (11721691_x_at) / Fold change /veh CYB561 (11721691_x_at) / RFU ANKRD19P (11752326_a_at) / Fold change /veh ANKRD19P (11752326_a_at) / RFU OR2T12 /// OR2T33 /// OR2T8 (11738714_s_at) / Fold change /veh OR2T12 /// OR2T33 /// OR2T8 (11738714_s_at) / RFU VCAN (11748164_a_at) / Fold change /veh VCAN (11748164_a_at) / RFU JSRP1 (11732532_at) / Fold change /veh JSRP1 (11732532_at) / RFU KRTAP10-11 (11738290_x_at) / Fold change /veh KRTAP10-11 (11738290_x_at) / RFU MYO3A (11730013_a_at) / Fold change /veh MYO3A (11730013_a_at) / RFU EBF3 (11725865_a_at) / Fold change /veh EBF3 (11725865_a_at) / RFU CAMK2N1 (11719241_x_at) / Fold change /veh CAMK2N1 (11719241_x_at) / RFU C5orf56 (11738088_a_at) / Fold change /veh C5orf56 (11738088_a_at) / RFU OLFML3 (11715873_a_at) / Fold change /veh OLFML3 (11715873_a_at) / RFU LOC100653217 /// NTM (11731650_a_at) / Fold change /veh LOC100653217 /// NTM (11731650_a_at) / RFU MAPK11 (11762145_a_at) / Fold change /veh MAPK11 (11762145_a_at) / RFU FIZ1 (11724087_x_at) / Fold change /veh FIZ1 (11724087_x_at) / RFU OASL (11726364_x_at) / Fold change /veh OASL (11726364_x_at) / RFU SOX15 (11748057_x_at) / Fold change /veh SOX15 (11748057_x_at) / RFU CD79A (11719716_a_at) / Fold change /veh CD79A (11719716_a_at) / RFU HIST1H1D (11736915_at) / Fold change /veh HIST1H1D (11736915_at) / RFU CASKIN2 (11723855_a_at) / Fold change /veh CASKIN2 (11723855_a_at) / RFU LOC730098 (11760151_x_at) / Fold change /veh LOC730098 (11760151_x_at) / RFU OR4N2 (11742367_at) / Fold change /veh OR4N2 (11742367_at) / RFU PRRT2 (11749266_a_at) / Fold change /veh PRRT2 (11749266_a_at) / RFU SNX32 (11753110_a_at) / Fold change /veh SNX32 (11753110_a_at) / RFU CDHR5 (11726645_a_at) / Fold change /veh CDHR5 (11726645_a_at) / RFU RCAN1 (11760418_a_at) / Fold change /veh RCAN1 (11760418_a_at) / RFU FAM167A (11723789_a_at) / Fold change /veh FAM167A (11723789_a_at) / RFU FAM26E (11764081_at) / Fold change /veh FAM26E (11764081_at) / RFU ISYNA1 (11749810_s_at) / Fold change /veh ISYNA1 (11749810_s_at) / RFU ACY1 (11761880_at) / Fold change /veh ACY1 (11761880_at) / RFU 11764098_at / Fold change /veh 11764098_at / RFU SAMD14 (11745864_x_at) / Fold change /veh SAMD14 (11745864_x_at) / RFU NPB (11741838_a_at) / Fold change /veh NPB (11741838_a_at) / RFU TMPRSS6 (11731388_a_at) / Fold change /veh TMPRSS6 (11731388_a_at) / RFU KRTAP10-2 (11738614_at) / Fold change /veh KRTAP10-2 (11738614_at) / RFU ARHGAP8 /// PRR5-ARHGAP8 (11727945_x_at) / Fold change /veh ARHGAP8 /// PRR5-ARHGAP8 (11727945_x_at) / RFU KRTAP5-7 /// NADSYN1 (11734609_at) / Fold change /veh KRTAP5-7 /// NADSYN1 (11734609_at) / RFU RASL12 (11751679_a_at) / Fold change /veh RASL12 (11751679_a_at) / RFU CDKN2B (11736163_a_at) / Fold change /veh CDKN2B (11736163_a_at) / RFU PRF1 (11729649_at) / Fold change /veh PRF1 (11729649_at) / RFU, ZNF638 /// ZNF638-IT1 / Fold change vs veh, ZNF638 /// ZNF638-IT1 / RFU, PANK3 / Fold change vs veh, PANK3 / RFU, SH3YL1 / Fold change vs veh, SH3YL1 / RFU, ZEB2 / Fold change vs veh, ZEB2 / RFU, NRIP1 / Fold change vs veh, NRIP1 / RFU, PTTG1IP / Fold change vs veh, PTTG1IP / RFU, CAPN2 / Fold change vs veh, CAPN2 / RFU, MED14 / Fold change vs veh, MED14 / RFU, SNORA58 / Fold change vs veh, SNORA58 / RFU, C1orf63 / Fold change vs veh, C1orf63 / RFU, LRRFIP1 / Fold change vs veh, LRRFIP1 / RFU, NDUFAF7 / Fold change vs veh, NDUFAF7 / RFU, SLC12A2 / Fold change vs veh, SLC12A2 / RFU, IBTK / Fold change vs veh, IBTK / RFU, ESF1 / Fold change vs veh, ESF1 / Fold change vs veh, TMEM50B / RFU, TAOK1 / Fold change vs veh, TAOK1 / RFU, ACBD3 / Fold change vs veh, ACBD3 / RFU, TMA16 / Fold change vs veh, TMA16 / RFU, RWDD3 / Fold change vs veh, RWDD3 / RFU, BCAT1 / Fold change vs veh, BCAT1 / RFU, EDEM3 / Fold change vs veh, EDEM3 / RFU, TMEM33 / Fold change vs veh, TMEM33 / RFU, WDR75 / Fold change vs veh, WDR75 / RFU, AHCTF1 / Fold change vs veh, AHCTF1 / RFU, TFRC / Fold change vs veh, TFRC / RFU, ZDHHC17 / Fold change vs veh, ZDHHC17 / RFU, NOM1 / Fold change vs veh, NOM1 / RFU, ARL8B / Fold change vs veh, ARL8B / RFU, ZBTB11 / Fold change vs veh, ZBTB11 / RFU, TAMM41 / Fold change vs veh, TAMM41 / RFU, KIAA1704 /// LOC100996395 / Fold change vs veh, KIAA1704 /// LOC100996395 / RFU, ING1 / Fold change vs veh, ING1 / RFU, TRMT61B / Fold change vs veh, TRMT61B / RFU, FUBP3 / Fold change vs veh, FUBP3 / RFU, TP53 / Fold change vs veh, TP53 / RFU, TNKS2 / Fold change vs veh, TNKS2 / RFU, ZFP14 / Fold change vs veh, ZFP14 / RFU, ACTR2 / Fold change vs veh, ACTR2 / RFU, PPP3R1 / Fold change vs veh, PPP3R1 / RFU, PIK3R1 / Fold change vs veh, PIK3R1 / RFU, HNRNPA1 / Fold change vs veh, HNRNPA1 / RFU, RNF170 / Fold change vs veh, RNF170 / RFU, ZNF28 / Fold change vs veh, ZNF28 / RFU, RNGTT / Fold change vs veh, RNGTT / RFU, OGT / Fold change vs veh, OGT / RFU, BRD1 / Fold change vs veh, BRD1 / RFU, MARS / Fold change vs veh, MARS / RFU, ZNF655 / Fold change vs veh, ZNF655 / RFU, FAHD1 / Fold change vs veh, FAHD1 / RFU, BDP1 / Fold change vs veh, BDP1 / RFU, LRRCC1 / Fold change vs veh, LRRCC1 / RFU, ARID1A / Fold change vs veh, ARID1A / RFU, ZNF146 / Fold change vs veh, ZNF146 / RFU, ZNF330 / Fold change vs veh, ZNF330 / RFU, GPN3 / Fold change vs veh, GPN3 / RFU, C9orf123 / Fold change vs veh, C9orf123 / RFU, N4BP2L2 / Fold change vs veh, N4BP2L2 / RFU, ARFIP1 / Fold change vs veh, ARFIP1 / RFU, FAM179B / Fold change vs veh, FAM179B / RFU, BCL10 / Fold change vs veh, BCL10 / RFU, UHRF1BP1L / Fold change vs veh, UHRF1BP1L / RFU, BET1 / Fold change vs veh, BET1 / RFU, CNOT2 / Fold change vs veh, CNOT2 / RFU, ZNF268 / Fold change vs veh, ZNF268 / Fold change vs veh, ZNF507 / RFU, DGCR2 / Fold change vs veh, DGCR2 / RFU, WDSUB1 / Fold change vs veh, WDSUB1 / Fold change vs veh, HSP90B1 /// MIR3652 / RFU, ADSS / Fold change vs veh, ADSS / RFU, GK / Fold change vs veh, GK / RFU, ZNF148 / Fold change vs veh, ZNF148 / RFU, TAF9 / Fold change vs veh, TAF9 / RFU, SLC1A5 / Fold change vs veh, SLC1A5 / RFU, SLMO2 / Fold change vs veh, SLMO2 / RFU, ABCC4 / Fold change vs veh, ABCC4 / RFU, LOC101060439 /// RAP1B / Fold change vs veh, LOC101060439 /// RAP1B / RFU, RFX7 / Fold change vs veh, RFX7 / RFU, GTPBP10 / Fold change vs veh, GTPBP10 / RFU, CNEP1R1 / Fold change vs veh, CNEP1R1 / RFU, BIVM-ERCC5 /// ERCC5 / Fold change vs veh, BIVM-ERCC5 /// ERCC5 / RFU, ILF3 / Fold change vs veh, ILF3 / RFU 11762660_at / Fold change /veh 11762660_at / RFU VCAN (11757783_s_at) / Fold change /veh VCAN (11757783_s_at) / RFU DDX43 (11728927_at) / Fold change /veh DDX43 (11728927_at) / RFU KRT8 (11758188_x_at) / Fold change /veh KRT8 (11758188_x_at) / RFU NKD1 (11759106_at) / Fold change /veh NKD1 (11759106_at) / RFU SRD5A1 (11742802_a_at) / Fold change /veh SRD5A1 (11742802_a_at) / RFU TPSAB1 /// TPSB2 (11721975_s_at) / Fold change /veh TPSAB1 /// TPSB2 (11721975_s_at) / RFU GSTM3 (11746129_a_at) / Fold change /veh GSTM3 (11746129_a_at) / RFU IL23R (11737362_x_at) / Fold change /veh IL23R (11737362_x_at) / RFU TMEM51 (11727254_a_at) / Fold change /veh TMEM51 (11727254_a_at) / RFU PIWIL2 (11732686_x_at) / Fold change /veh PIWIL2 (11732686_x_at) / RFU ORM1 (11744905_x_at) / Fold change /veh ORM1 (11744905_x_at) / RFU CCDC152 (11743942_at) / Fold change /veh CCDC152 (11743942_at) / RFU ECM1 (11717891_a_at) / Fold change /veh ECM1 (11717891_a_at) / RFU IL23R (11748794_a_at) / Fold change /veh IL23R (11748794_a_at) / RFU TNFAIP8L3 (11732012_x_at) / Fold change /veh TNFAIP8L3 (11732012_x_at) / RFU MBOAT4 (11741988_at) / Fold change /veh MBOAT4 (11741988_at) / RFU 11764193_at / Fold change /veh 11764193_at / RFU TMEM53 (11763286_at) / Fold change /veh TMEM53 (11763286_at) / RFU MAGEB2 (11727129_at) / Fold change /veh MAGEB2 (11727129_at) / RFU TMEM200A (11744735_a_at) / Fold change /veh TMEM200A (11744735_a_at) / RFU CCDC152 (11751479_a_at) / Fold change /veh CCDC152 (11751479_a_at) / RFU FAM211A (11726209_a_at) / Fold change /veh FAM211A (11726209_a_at) / RFU RGS16 (11746705_a_at) / Fold change /veh RGS16 (11746705_a_at) / RFU VCAN (11755009_s_at) / Fold change /veh VCAN (11755009_s_at) / RFU RHOB (11743442_s_at) / Fold change /veh RHOB (11743442_s_at) / RFU RGS16 (11720943_a_at) / Fold change /veh RGS16 (11720943_a_at) / RFU RGS16 (11720944_at) / Fold change /veh RGS16 (11720944_at) / RFU, VPS4B / Fold change vs veh, VPS4B / RFU, CREB1 / Fold change vs veh, CREB1 / RFU, DNAJC13 / Fold change vs veh, DNAJC13 / RFU, GNAQ / Fold change vs veh, GNAQ / RFU, CDK5R1 / Fold change vs veh, CDK5R1 / RFU, ZRANB3 / Fold change vs veh, ZRANB3 / RFU, CUL4A / Fold change vs veh, CUL4A / RFU, CCNY / Fold change vs veh, CCNY / RFU, UFL1 / Fold change vs veh, UFL1 / RFU, COG3 / Fold change vs veh, COG3 / RFU, DIAPH2 / Fold change vs veh, DIAPH2 / RFU, SKA2 / Fold change vs veh, SKA2 / RFU, AFF3 / Fold change vs veh, AFF3 / RFU, LMF1 / Fold change vs veh, LMF1 / RFU, IPO11 / Fold change vs veh, IPO11 / RFU, DFFB / Fold change vs veh, DFFB / RFU, FOXP1 / Fold change vs veh, FOXP1 / RFU, CARD8 / Fold change vs veh, CARD8 / RFU, STRN3 / Fold change vs veh, STRN3 / RFU, ADK / Fold change vs veh, ADK / RFU, RASSF2 / Fold change vs veh, RASSF2 / RFU, WIPF1 / Fold change vs veh, WIPF1 / RFU, LARP1B / Fold change vs veh, LARP1B / RFU, RASA1 / Fold change vs veh, RASA1 / RFU, RB1 / Fold change vs veh, RB1 / RFU, PPFIA1 / Fold change vs veh, PPFIA1 / RFU, MAT2A / Fold change vs veh, MAT2A / RFU, CCT5 / Fold change vs veh, CCT5 / RFU, WDR92 / Fold change vs veh, WDR92 / RFU, CUX1 / Fold change vs veh, CUX1 / RFU, TTC7A / Fold change vs veh, TTC7A / RFU, TMEM135 / Fold change vs veh, TMEM135 / RFU, DEPTOR / Fold change vs veh, DEPTOR / RFU, CPM / Fold change vs veh, CPM / RFU, DNAJB6 / Fold change vs veh, DNAJB6 / RFU, CACNA2D3 / Fold change vs veh, CACNA2D3 / RFU, DTX4 / Fold change vs veh, DTX4 / RFU, TFCP2 / Fold change vs veh, TFCP2 / RFU, GMCL1 /// GMCL1P1 / Fold change vs veh, GMCL1 /// GMCL1P1 / RFU, AEBP2 / Fold change vs veh, AEBP2 / RFU, SNHG1 /// SNORD22 /// SNORD25 /// SNORD26 /// SNORD27 /// SNORD28 /// SNORD29 /// SNORD31 / Fold change vs veh, SNHG1 /// SNORD22 /// SNORD25 /// SNORD26 /// SNORD27 /// SNORD28 /// SNORD29 /// SNORD31 / Fold change (Aza/veh), C12orf56 (ProbeSet 11735607_a_at) / Fold change (ACY-1035/veh), C12orf56 (ProbeSet 11735607_a_at) / Fold change (Aza/veh), FGFR1OP (ProbeSet 11751329_s_at) / Fold change (ACY-1035/veh), FGFR1OP (ProbeSet 11751329_s_at) / Fold change (Aza/veh), VPS36 (ProbeSet 11739960_a_at) / Fold change (ACY-1035/veh), VPS36 (ProbeSet 11739960_a_at) / RFU SYPL1 (11715823_x_at) / Fold change /veh SYPL1 (11715823_x_at) / RFU IGFBP7 (11715501_s_at) / Fold change /veh IGFBP7 (11715501_s_at) / RFU REEP3 (11722064_at) / Fold change /veh REEP3 (11722064_at) / RFU IGLL1 (11728026_x_at) / Fold change /veh IGLL1 (11728026_x_at): dose or concentration left out as unconfirmed. Conditions: ProbeSet 11716891_at; LIST B.

Take `Nc1ccc(-c2cccs2)cc1NC(=O)c1ccc2c(c1)cc(C1CC1)n2CCN1CCOCC1` [ACY-1035]: the “RFU, C9orf123” value is on record as 39.54 RFU.
